Patent US10023528B2, “Branched 3-phenylpropionic acid derivatives and their use” (BAYER INTELLECTUAL PROPERTY GMBH, priority 2011, dated 2018)

Legend:
saphenous artery rings = experiment: Vasorelaxant effect in vitro (phenylephrine-contracted saphenous artery rings); type: cell-based; settings: Oryctolagus cuniculus; rabbit saphenous artery rings, phenylephrine-induced contraction
Procedure: Rabbits are anaesthetized and sacrificed by intravenous injection of thiopental sodium (about 50 mg/kg) and exsanguinated. The saphenous artery is removed and divided into rings 3 mm wide. The rings are mounted singly on in each case a pair of triangular hooks open at the end and made of 0.3 mm-thick special wire (Remanium®). Each ring is placed under an initial tension in 5 ml organ baths with Krebs-Henseleit solution which is at 37° C., is gassed with carbogen and has the following composition: NaCl 119 mM; KCl 4.8 mM; CaCl2×2 H2O 1 mM; MgSO4×7 H2O 1.4 mM; KH2PO4 1.2 mM; NaHCO3 25 mM; glucose 10 mM; bovine serum albumin 0.001%. The force of contraction is detected with Statham UC2 cells, amplified and digitized via A/D converters (DAS-1802 HC, Keithley Instruments, Munich) and recorded in parallel on chart recorders. Contractions are induced by addition of phenylephrine.
After several (generally 4) control cycles, the substance to be investigated is added in each further run in increasing dosage, and the level of the contraction achieved under the influence of the test substance is compared with the level of the contraction reached in the last preceding run. The concentration necessary to reduce the contraction reached in the preceding control by 50% is calculated from this (IC50). The standard application volume is 5 μl. The proportion of DMSO in the bath solution corresponds to 0.1%.

[1] = system: recombinant guanylate cyclase reporter cell line (CHO reporter cell); experiment: Action at a recombinant guanylate cyclase reporter cell line; type: cell-based; settings: CHO reporter cell in vitro; read-out: MEC (minimum effective concentration), sGC-activating activity in the CHO reporter cell
Procedure: The cellular action of the compounds according to the invention is determined at a recombinant guanylate cyclase reporter cell line, as described in F. Wunder et al., Anal. Biochem. 339, 104-112 (2005).

[2] = molecular target: soluble guanylate cyclase (sGC) (Rattus norvegicus (Rat), UniProt P20595); experiment: Stimulation of sGC enzyme activity (PPi detection, luciferase); type: biochemical; settings: sGC enzyme in vitro; for EC50: read-out: EC50 (concentration at 50% of maximum efficacy), activating action at the sGC enzyme
Procedure: Soluble guanylate cyclase (sGC) converts on stimulation GTP into cGMP and pyrophosphate (PPi). PPi is detected with the aid of the assay described below. The signal produced in the assay increases as the reaction progresses and serves as a measure of the sGC enzyme activity under the given stimulation.
To carry out the assay, 29 μl of enzyme solution [0-10 nM soluble guanylate cyclase (prepared according to Hönicka et al, J. Mol. Med. 77, 14-23 (1999)) in 50 mM TEA, 2 mM MgC2, 0.1% BSA (fraction V), 0.005% Brij®, pH 7.5] are initially introduced into a microplate, and 1 μl of the substance to be tested (as a serially diluted solution in DMSO) is added. The mixture is incubated at room temperature for 10 min. Then 20 μl of detection mix [1.2 nM Firefly Luciferase (Photinus pyralis luciferase, Promega), 29 μM dehydroluciferin (prepared according to Bitler & McElroy, Arch. Biochem. Biophys. 72, 358 (1957)), 122 μM luciferin (Promega), 153 μM ATP (Sigma) and 0.4 mM DTT (Sigma) in 50 mM TEA, 2 mM MgCl2, 0.1% BSA (fraction V), 0.005% Brij®, pH 7.5] are added. The enzyme reaction is started by adding 20 μl of substrate solution [1.25 mM guanosine 5′-triphosphate (Sigma) in 50 mM TEA, 2 mM MgC2, 0.1% BSA (fraction V), 0.005% Brij®, pH 7.5] and measured continuously in a luminometer. The extent of the stimulation by the substance to be tested can be determined relative to the signal of the unstimulated reaction.
The activation of haem-free guanylate cyclase is examined by addition of 25 μM of 1H-1,2,4-oxadiazolo[4,3-a]quinoxalin-1-one (ODQ) to the enzyme solution and subsequent incubation for 30 minutes and compared to the stimulation of the native enzyme.

Chain of soluble guanylate cyclase (sGC) (P20595 whole entry): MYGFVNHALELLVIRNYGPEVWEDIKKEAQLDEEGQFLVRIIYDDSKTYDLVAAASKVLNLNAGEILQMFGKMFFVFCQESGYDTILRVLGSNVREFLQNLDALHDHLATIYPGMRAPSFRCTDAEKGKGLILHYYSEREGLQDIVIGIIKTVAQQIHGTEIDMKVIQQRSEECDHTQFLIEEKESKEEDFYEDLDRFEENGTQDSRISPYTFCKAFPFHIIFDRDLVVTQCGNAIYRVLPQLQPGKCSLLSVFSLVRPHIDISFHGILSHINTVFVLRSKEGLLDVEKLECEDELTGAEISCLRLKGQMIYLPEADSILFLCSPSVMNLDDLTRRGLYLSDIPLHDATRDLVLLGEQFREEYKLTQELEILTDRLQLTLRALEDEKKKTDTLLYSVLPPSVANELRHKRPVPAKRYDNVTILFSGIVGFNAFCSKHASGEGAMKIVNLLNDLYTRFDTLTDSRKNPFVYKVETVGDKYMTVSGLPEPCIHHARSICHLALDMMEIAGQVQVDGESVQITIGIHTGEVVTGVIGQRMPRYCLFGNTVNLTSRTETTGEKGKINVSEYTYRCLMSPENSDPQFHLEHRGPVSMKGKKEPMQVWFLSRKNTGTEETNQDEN
Chain of soluble guanylate cyclase (sGC) (P19686 whole entry partner): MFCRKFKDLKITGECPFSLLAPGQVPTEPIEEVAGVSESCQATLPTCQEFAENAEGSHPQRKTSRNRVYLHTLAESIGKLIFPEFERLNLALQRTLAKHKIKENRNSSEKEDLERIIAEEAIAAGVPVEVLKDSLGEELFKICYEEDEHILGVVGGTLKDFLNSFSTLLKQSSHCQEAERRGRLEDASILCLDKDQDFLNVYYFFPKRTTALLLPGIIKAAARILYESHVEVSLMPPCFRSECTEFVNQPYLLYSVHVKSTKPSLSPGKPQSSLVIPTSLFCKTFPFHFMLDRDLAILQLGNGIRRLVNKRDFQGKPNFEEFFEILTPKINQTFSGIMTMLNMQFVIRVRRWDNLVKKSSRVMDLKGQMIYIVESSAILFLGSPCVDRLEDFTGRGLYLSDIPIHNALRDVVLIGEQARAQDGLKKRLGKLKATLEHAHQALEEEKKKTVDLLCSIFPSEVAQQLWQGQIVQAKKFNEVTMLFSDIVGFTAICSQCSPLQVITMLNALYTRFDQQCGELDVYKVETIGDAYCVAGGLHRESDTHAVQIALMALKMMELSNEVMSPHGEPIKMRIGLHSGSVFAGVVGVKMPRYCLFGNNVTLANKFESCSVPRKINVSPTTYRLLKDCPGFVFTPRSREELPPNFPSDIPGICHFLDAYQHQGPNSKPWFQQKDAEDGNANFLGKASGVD

Row | SMILES | IC50 (saphenous artery rings) [nM] | MEC (minimum effective concentration), activating action at the sGC enzyme [2] [nM] | EC50 [2] [nM] | minimal effective concentration [1] [µM]
1 | CC(C)C(C)(CC(=O)O)c1ccc(Cl)c(NC(=O)[C@H](c2ccc(Cl)cc2)[C@@H](C)C(F)(F)F)c1 (single isomer, unassigned) [Example 3] | 801 | 1 | 37 | 0.0003
2 | C[C@H]([C@H](C(=O)Nc1cc(C(CC(=O)O)C2(C)CC2)ccc1Cl)c1ccc(Cl)cc1)C(F)(F)F (single isomer, unassigned) [Example 26] | – | – | – | 0.01
3 | C[C@H]([C@H](C(=O)Nc1cc(C(CC(=O)O)CC2CC2)ccc1Cl)c1ccc(Cl)cc1)C(F)(F)F (single isomer, unassigned) [Example 36] | – | – | – | 0.003
4 | CC(C)C(CC(=O)O)c1ccc(Cl)c(NC(=O)[C@H](c2ccc(Cl)cc2)[C@@H](C)C(F)(F)F)c1 (single isomer, unassigned; (+)) [Example 1] | – | 1 | 22 | 0.003
5 | CC(C)C(CC(=O)O)c1ccc(Cl)c(NC(=O)[C@H](c2ccc(Cl)cc2)[C@@H](C)C(F)(F)F)c1 (single isomer, unassigned; (+)) [Example 2] | – | 4 | 89 | 0.0065
6 | C[C@H]([C@H](C(=O)Nc1cc(C(CC(=O)O)C2CCC2)ccc1Cl)c1ccc(Cl)cc1)C(F)(F)F (single isomer, unassigned; (+)) [Example 34] | – | – | – | 0.01
7 | C[C@H]([C@H](C(=O)Nc1cc(C(C)(CC(=O)O)C2CC2)ccc1Cl)c1ccc(Cl)cc1)C(F)(F)F (stereo partly drawn) [Example 7] | – | – | – | 0.3
8 | CCc1ccc([C@@H](C(=O)Nc2cc(C(CC(=O)O)C(C)C)ccc2Cl)[C@@H](C)C(F)(F)F)cc1 (stereo partly drawn) [Example 8] | – | – | – | 0.001
9 | CC(C)C(CC(=O)O)c1ccc(Cl)c(NC(=O)[C@H](c2ccc(Cl)c(F)c2)[C@@H](C)C(F)(F)F)c1 (stereo partly drawn) [Example 9] | – | – | – | 0.001
10 | CC(C)C(CC(=O)O)c1ccc(Cl)c(NC(=O)[C@H](c2ccc(F)cc2)[C@@H](C)C(F)(F)F)c1 (stereo partly drawn) [Example 11] | – | – | – | 0.003
11 | COc1cc([C@@H](C(=O)Nc2cc(C(CC(=O)O)C(C)C)ccc2Cl)[C@@H](C)C(F)(F)F)ccc1Cl (stereo partly drawn) [Example 15] | – | – | – | 0.003
12 | Cc1cc([C@@H](C(=O)Nc2cc(C(CC(=O)O)C(C)C)ccc2Cl)[C@@H](C)C(F)(F)F)ccc1Cl (stereo partly drawn) [Example 17] | – | – | – | 0.001
13 | CC(C)C(CC(=O)O)c1ccc(Cl)c(NC(=O)C(c2ccc(Cl)cc2)C2CCC(F)(F)C2)c1 (stereo not drawn) [Example 18] | – | – | – | 0.3
14 | CC(C)C(CC(=O)O)c1ccc(Cl)c(NC(=O)C(c2ccc(Cl)cc2)C2CCC(F)(F)C2)c1 (stereo not drawn) [Example 19] | – | – | – | 0.03
15 | CC(C)C(CC(=O)O)c1ccc(Cl)c(NC(=O)C(c2ccc(Cl)cc2)C2CCC(F)(F)C2)c1 (stereo not drawn) [Example 20] | – | – | – | 1
16 | CC(C)C(CC(=O)O)c1ccc(Cl)c(NC(=O)C(c2ccc(Cl)cc2)C2CCC(F)(F)C2)c1 (stereo not drawn) [Example 21] | – | – | – | 0.01
17 | C[C@H]([C@H](C(=O)Nc1cc(C(CC(=O)O)C2CC2)ccc1Cl)c1ccc(Cl)cc1)C(F)(F)F (stereo partly drawn) [Example 23] | – | – | – | 0.003
18 | C[C@H]([C@H](C(=O)Nc1cc(C(CC(=O)O)C2CC(F)(F)C2)ccc1Cl)c1ccc(Cl)cc1)C(F)(F)F (stereo partly drawn) [Example 28] | – | – | – | 0.03
19 | C[C@H](C(C(=O)Nc1cc(C(CC(=O)O)C2CC2(F)F)ccc1Cl)c1ccc(Cl)cc1)C(F)(F)F (stereo partly drawn) [Example 31, 3-(4-Chloro-3-{[(3R)-2-(4-chlorophenyl)-4,4,4-trifluoro-3-methylbutanoyl]amino}phenyl)-3-(2,2-difluorocyclopropyl)propanoic acid] | – | – | – | 0.003

The next lines start with results.

Row | IC50 (saphenous artery rings) [nM] | MEC (minimum effective concentration), activating action at the sGC enzyme [2] [nM] | EC50 [2] [nM] | SMILES | minimal effective concentration [1] [µM]
20 | – | 2.4 | 110 | CC(C)C(C)(CC(=O)O)c1ccc(Cl)c(NC(=O)[C@H](c2ccc(Cl)cc2)[C@@H](C)C(F)(F)F)c1 (single isomer, unassigned) [Example 4] | 0.003
21 | – | 0.3 | 5.2 | C[C@H]([C@H](C(=O)Nc1cc(C(C)(CC(=O)O)C2CCC2)ccc1Cl)c1ccc(Cl)cc1)C(F)(F)F (single isomer, unassigned) [Example 5] | 0.0003
22 | – | 1.1 | 56 | C[C@H]([C@H](C(=O)Nc1cc(C(C)(CC(=O)O)C2CCC2)ccc1Cl)c1ccc(Cl)cc1)C(F)(F)F (single isomer, unassigned) [Example 6] | 0.001
23 | – | 1 | 11 | C[C@H]([C@H](C(=O)Nc1cc(C(CC(=O)O)CC2CC2)ccc1Cl)c1ccc(Cl)cc1)C(F)(F)F (single isomer, unassigned) [Example 35] | 0.0003
24 | – | 0.4 | 11 | C[C@H]([C@H](C(=O)Nc1cc(C(CC(=O)O)C2CCC2)ccc1Cl)c1ccc(Cl)cc1)C(F)(F)F (single isomer, unassigned; (+)) [Example 33] | 0.001
25 | 131 | 0.5 | 10 | CC(C)c1ccc([C@@H](C(=O)Nc2cc(C(CC(=O)O)C(C)C)ccc2Cl)[C@@H](C)C(F)(F)F)cc1 (stereo partly drawn) [Example 10] | 0.0003
26 | – | 1.1 | 17 | CC(C)C(CC(=O)O)c1ccc(Cl)c(NC(=O)C(c2ccc(CC(F)(F)F)cc2)C(C)C(F)(F)F)c1 (stereo not drawn) [Example 12] | 0.001
27 | – | 0.5 | 14 | CC(C)C(CC(=O)O)c1ccc(Cl)c(NC(=O)[C@H](c2ccc(C3CC3(F)F)cc2)[C@@H](C)C(F)(F)F)c1 (stereo partly drawn) [Example 13] | 0.0003
28 | 269 | 0.5 | 8.4 | CC(C)C(CC(=O)O)c1ccc(Cl)c(NC(=O)[C@H](c2ccc(C(C)(C)C)cc2)[C@@H](C)C(F)(F)F)c1 (stereo partly drawn) [Example 14] | 0.0003
29 | 767 | – | – | Cc1ccc([C@@H](C(=O)Nc2cc(C(CC(=O)O)C(C)C)ccc2Cl)[C@@H](C)C(F)(F)F)cc1 (stereo partly drawn) [Example 16] | 0.003
30 | – | 5.1 | 220 | COC(C)(C)C(CC(=O)O)c1ccc(Cl)c(NC(=O)[C@H](c2ccc(Cl)cc2)[C@@H](C)C(F)(F)F)c1 (stereo partly drawn) [Example 25] | 0.01
31 | – | 1.7 | 68 | C[C@H]([C@H](C(=O)Nc1cc(C(CC(=O)O)C2(F)CC2)ccc1Cl)c1ccc(Cl)cc1)C(F)(F)F (stereo partly drawn) [Example 27] | 0.003
32 | – | 1.7 | 640 | CC(C(=O)O)C(c1ccc(Cl)c(NC(=O)C(c2ccc(Cl)cc2)[C@@H](C)C(F)(F)F)c1)C1CC1 (stereo partly drawn) [Example 30] | 0.01
